What was measured:
[1] = Stress stability testing in vials, sirolimus impurities by HPLC; type: physicochemical; parameters: unit not given here; conditions: 7 days, 60° C.
[2] = as above; type: physicochemical; parameters: Total sum of impurities / Max.unknown impurity: unit not given here
Experimental: The origination of a solid solution of sirolimus was checked by X-ray diffraction analysis and Raman microscopy. […] These were exposed then to stress stability testing at 60° C. for 14 days and at 40° C. and 75% relative humidity for one month in vials. The amount of degradation products formed was compared to the samples of commercially available tablets comprising sirolimus.
The HPLC analyses were performed with a Waters system equipped with a Synergi Max-RP, 5 μm, 250×4.6 mm column which was maintained in a column oven at 40° C. The mobile phase consisted of a 40:54:6 (V/V/V) mixture of CF3COOH/NaOH with pH 2.5, acetonitrile and water. The flow rate was 1.4 mL/min, and the detection wavelength was 278 nm.
For the stability studies, two solid solutions were prepared using ethanol-soluble polymers polyvinylpyrrolidone (PVP) or hydroxypropylcellulose (HPC). The chemical stability was monitored for 14 days at 60° C. and 1 month at 40° C. and 75% relative humidity. The samples were stored in vials.

[3] = Solubility of sirolimus in water; conditions: volume of 250 ml of gastrointestinal fluid
[4] = 1 month, 40° C./75% relative humidity, in vials

Row | Max.unknown impurity [1] | Total sum of impurities [1] | chemical stability of sirolimus, comparison in words ([2]; stress stability testing, comparison between samples of Table 3) | Max.unknown impurity ([2]; time of testing 0) | Total sum of impurities ([2]; time of testing 0) | amount of sirolimus dissolved in gastrointestinal fluid [3] | Max.unknown impurity [2, 4] | Total sum of impurities [2, 4] | Max.unknown impurity ([2]; 14 days, 60° C., in vials) | Total sum of impurities ([2]; 14 days, 60° C., in vials) | Compound
1 | 1.91 | 9.09 | significantly less stable | 0.25 | 3.34 |  |  |  |  |  | CO[C@H]1C[C@@H]2CC[C@@H](C)[C@@](O)(O2)C(=O)C(=O)N2CCCC[C@H]2C(=O)O[C@H]([C@H](C)C[C@@H]2CC[C@@H](O)[C@H](OC)C2)CC(=O)[C@H](C)/C=C(\C)[C@@H](O)[C@@H](OC)C(=O)[C@H](C)C[C@H](C)/C=C/C=C/C=C/1C [Example 1, sirolimus]
2 |  |  |  |  |  | about 0.65 mg |  |  |  |  | CO[C@H]1C[C@@H]2CC[C@@H](C)[C@@](O)(O2)C(=O)C(=O)N2CCCC[C@H]2C(=O)O[C@H]([C@H](C)C[C@@H]2CC[C@@H](O)[C@H](OC)C2)CC(=O)[C@H](C)/C=C(\C)[C@@H](O)[C@@H](OC)C(=O)[C@H](C)C[C@H](C)/C=C/C=C/C=C/1C [Sirolimus, (3S,6R,7E,9R,10R,12R,14S,15E,17E,19E,21S,23S,26R,27R,34aS)-9,10,12,13, -14,21,22,23,24,25,26,27,32,33,34,34a-hexadecahydro-9,27-dihydroxy-3-[(1R)-2-[(1S,3R,4R)-4-hydroxy-3-methoxycyclohexyl]-1-methylethyl]-10,21-dimethox-y-6,8,12,14,20,26-hexamethyl-23,27-epoxy-3H-pyrido[2,1-c][1,4]oxaazacycloh-entriacontine-1,5,11,28,29(4H,6H,31H)-pentone]
3 |  |  |  | 0.19 | 0.70 |  | 0.26 | 0.59 | 0.26 | 0.60 | CO[C@H]1C[C@@H]2CC[C@@H](C)[C@@](O)(O2)C(=O)C(=O)N2CCCC[C@H]2C(=O)O[C@H]([C@H](C)C[C@@H]2CC[C@@H](O)[C@H](OC)C2)CC(=O)[C@H](C)/C=C(\C)[C@@H](O)[C@@H](OC)C(=O)[C@H](C)C[C@H](C)/C=C/C=C/C=C/1C [Substance in a crystal form, sirolimus]
